According to patent US5525627A, “Esters of acyl carnitines with long-chain aliphatic alcohols and pharmaceutical compositions containing same having antimycotic activity” (Sigma-Tau Industrie Farmaceutiche Riunite S.p.A., priority 1992, dated 1996):

Assays:
[1] = Assessment of behaviour and mortality in mice (Irwin's method); design: species or system mice (male Crl:(CD-1)(ICR)BR); conditions: mouse, in vivo; oral, dose 1000 (unit inferred), 4 animals/dose
Method: (§1) ASSESSMENT OF BEHAVIOUR AND MORTALITY IN MICE
(§2) The assessment of normal behaviour in mice was carried out following S. Irwin's method (Psychopharmacologia, 13, 222 [1968]). This method allows alterations in some behavioural, neurophysiologic and neurovegetative parameters to be detected, which are directly observable by the researcher. The study was conducted using male Crl:(CD-1)(ICR)BR mice (Charles River-Italy) weighing 22-25 g. following oral administration of the compounds suspended in carboxymethylcellulose (0.5% by weight in H2 O) to groups of 4 animals/dose.
(§3) The animals were continously kept under observation for five hours following treatment and twice a day in the subsequent five days. Mortality was also observed during the overall test period.

mice = experiment: as above; design: species or system mice (male Crl:(CD-1)(ICR)BR); conditions: mouse, in vivo, po
Method: as §1, §2, §3

Candida albicans (562) = experiment: MIC for yeast and yeast-like strains; assay type: cell-based; conditions: 48 hours, 35° C., read-out: Minimal Inhibitory Concentration (MIC)
Method in brief: (§4)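 Broth microdilution in Yeast Nitrogen Base with 0.15% asparagine and 1.0% glucose, buffered with 0.165 M MOPS. Inocula from overnight Sabouraud broth cultures (48 h for Cryptococcus), final approx. 5.0×10^4 CFU/ml, mixed with equal volume of compound solution.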

Candida albicans (A 54) = experiment: MIC for yeast and yeast-like strains; assay type: cell-based; conditions: 48 hours, 35° C., read-out: Minimal Inhibitory Concentration (MIC)
Method in brief: as §4

Candida albicans (Ca 2) = experiment: MIC for yeast and yeast-like strains; assay type: cell-based; conditions: 48 hours, 35° C., read-out: Minimal Inhibitory Concentration (MIC)
Method in brief: as §4

Candida krusei (ISS 1) = experiment: MIC for yeast and yeast-like strains; assay type: cell-based; conditions: Pichia kudriavzevii; 48 hours, 35° C.; read-out: Minimal Inhibitory Concentration (MIC)
Method in brief: as §4

[2] = test system: Candida tropicalis (5705); experiment: MIC for yeast and yeast-like strains; assay type: cell-based; conditions: 48 hours, 35° C., read-out: Minimal Inhibitory Concentration (MIC)
Method in brief: as §4

[3] = test system: Cryptococcus neoformans (4711); experiment: MIC for yeast and yeast-like strains; assay type: cell-based; conditions: 48 hours, 35° C., read-out: Minimal Inhibitory Concentration (MIC)
Method in brief: as §4

[4] = test system: Saccharomyces cerevisiae (ATCC 7752); experiment: MIC for yeast and yeast-like strains; assay type: cell-based; conditions: ATCC7752, 48 hours, 35° C., read-out: Minimal Inhibitory Concentration (MIC)
Method in brief: as §4

[5] = test system: Torulopsis candida (D.S.); experiment: MIC for yeast and yeast-like strains; assay type: cell-based; conditions: Suzukiozyma candida; 48 hours, 35° C.; read-out: Minimal Inhibitory Concentration (MIC)
Method in brief: as §4

[6] = test system: Candida albicans (ATCC 2091); experiment: MIC for yeast and yeast-like strains; assay type: cell-based; conditions: ATCC2091, 48 hours, 35° C., read-out: Minimal Inhibitory Concentration (MIC)
Method in brief: as §4

Candida albicans (ISS 1) = experiment: MIC for yeast and yeast-like strains; assay type: cell-based; conditions: 48 hours, 35° C., read-out: Minimal Inhibitory Concentration (MIC)
Method in brief: as §4

Candida glabrata (ISS 1) = experiment: MIC for yeast and yeast-like strains; assay type: cell-based; conditions: Nakaseomyces glabratus; 48 hours, 35° C.; read-out: Minimal Inhibitory Concentration (MIC)
Method in brief: as §4

[7] = test system: Candida guilliermondii (ISS 1); experiment: MIC for yeast and yeast-like strains; assay type: cell-based; conditions: Meyerozyma guilliermondii; 48 hours, 35° C.; read-out: Minimal Inhibitory Concentration (MIC)
Method in brief: as §4

[8] = test system: Candida parapsilosis (ISS 1); experiment: MIC for yeast and yeast-like strains; assay type: cell-based; conditions: Lodderomyces parapsilosis; 48 hours, 35° C.; read-out: Minimal Inhibitory Concentration (MIC)
Method in brief: as §4

[9] = test system: Candida pseudotropicalis (EC 1); experiment: MIC for yeast and yeast-like strains; assay type: cell-based; conditions: Kluyveromyces marxianus; 48 hours, 35° C.; read-out: Minimal Inhibitory Concentration (MIC)
Method in brief: as §4

[10] = test system: Candida tropicalis (ISS 1); experiment: MIC for yeast and yeast-like strains; assay type: cell-based; conditions: 48 hours, 35° C., read-out: Minimal Inhibitory Concentration (MIC)
Method in brief: as §4

[11] = test system: Cryptococcus neoformans (ISS 1); experiment: MIC for yeast and yeast-like strains; assay type: cell-based; conditions: 48 hours, 35° C., read-out: Minimal Inhibitory Concentration (MIC)
Method in brief: as §4

yeast-like fungi = experiment: MIC / MFC for yeast-like fungi, all strains; assay type: cell-based, Candida, Cryptococcus, Saccharomyces, Torulopsis; conditions: versus susceptible strains; read-out: Mean MIC values
Method in brief: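 Candida, Cryptococcus, Saccharomyces and Torulopsis strains tested by broth microdilution in Yeast Nitrogen Base with 0.15% asparagine and 1.0% glucose, buffered with 0.165 M MOPS; final inoculum about 5.0×10^4 CFU/ml from overnight (Cryptococcus 48-hour) Sabouraud cultures. MFC from spot-transfer of wells without visible growth onto Sabouraud agar.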

filamentous fungi = experiment: MIC / MFC for filamentous fungi, all strains; assay type: cell-based, Aspergillus, Fusarium, Mucor, Penicillium; conditions: versus susceptible strains; read-out: Mean MIC values
Method in brief: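 Conidia, 72-h Sabouraud agar cultures; harvest in Sabouraud + Tween 80 (1 drop/10 ml); inoculum 5.0×10^4 CFU/ml. Method as for yeast-like fungi; MIC/MFC evaluated per earlier protocol.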

With `CCCCCCCCCCCOC(=O)C[C@H](C[N+](C)(C)C)OC(=O)CC(C)C` [ST 722, isovaleryl-L-carnitine undecyl ester chloride] the mortality at 120 h [1] was 0%, the Symptoms (mice) was “salivation, diarrhoea” and the MIC (Candida albicans (562)) was 3.12 µg/mL. It also gave an MIC (Candida albicans (A 54)) of 3.12 µg/mL, an MIC (Candida albicans (Ca 2)) of 1.56 µg/mL and an MIC (Candida krusei (ISS 1)) of 3.12 µg/mL. It also gave an MIC [2] of 3.12 µg/mL, an MIC [3] of 1.56 µg/mL and an MIC [4] of 3.12 µg/mL. The MIC [5] was 6.25 µg/mL, the MIC [6] was 3.12 µg/mL and the MIC (Candida albicans (ISS 1)) was 1.56 µg/mL. It also gave an MIC (Candida glabrata (ISS 1)) of 6.25 µg/mL, an MIC [7] of 6.25 µg/mL and an MIC [8] of 6.25 µg/mL. It also gave an MIC [9] of 6.25 µg/mL, an MIC [10] of 3.12 µg/mL and an MIC [11] of 3.12 µg/mL. For the same compound, the MIC (yeast-like fungi) was 3.76 µg/mL and the MIC (filamentous fungi) was 16.4 µg/mL.
